# Assay results from patent publication US8383139B2 (Bayer CropScience AG, priority 2008, dated 2013).
# Read-outs that look alike come from different tables or passages of the source.
# Key:
# Alternaria solani = assay: Alternaria test (tomato)/protective; assay type: in vivo; settings: 72 h, 100 ppm active substance, protective, evaluation 3 days after inoculation, read-out: degree of effectiveness
# Uromyces appendiculatus = assay: Uromyces test (beans)/protective; assay type: in vivo; settings: 240 h, 100 ppm active substance, protective, evaluation 10 days after inoculation, read-out: degree of effectiveness
# Procedure, shortened: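 Young bean plants were sprayed with compound (acetone/dimethylacetamide/emulsifier concentrate diluted in water), dried, then inoculated with U. appendiculatus spores. They were held 1 day at ~20 °C, 100% RH, then kept in a greenhouse at ~21 °C, ~90% RH. Efficacy was scored at 10 days post-inoculation (0% = control, 100% = no infestation).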
# Sphaerotheca fuliginea = assay: Sphaerotheca test (cucumber)/protective; assay type: in vivo; settings: Podosphaera fuliginea, 168 h, 500 ppm active substance, protective, evaluation 7 days after inoculation, read-out: degree of effectiveness
# Procedure, shortened: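 Young cucumber plants sprayed at the stated rate with active substance in DMF/alkylaryl polyglycol ether emulsifier diluted in water, then inoculated with Sphaerotheca fuliginea spores one day later. Kept in greenhouse at 70% relative humidity, 23° C.; scored 7 days post-inoculation as % efficacy (0% = untreated control, 100% = no infestation).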
# Puccinia triticina = Puccinia triticina test (wheat)/protective; assay type: in vivo; settings: 192 h, 500 ppm active substance, protective, evaluation 8 days after inoculation, read-out: degree of effectiveness
# Procedure, shortened: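 Protective test: young wheat plants sprayed with compound (in N,N-dimethylacetamide/emulsifier, diluted in water) at the stated rate, dried, then inoculated with Puccinia triticina spores; 48 h at 20 °C, 100% RH, then greenhouse ~20 °C, ~80% RH. Efficacy scored 8 days post-inoculation, 0% = untreated control, 100% = no infestation.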
# Septoria tritici = Septoria tritici test (wheat)/protective; assay type: in vivo; settings: Zymoseptoria tritici, 504 h, 500 ppm active substance, protective, evaluation 21 days after inoculation, read-out: degree of effectiveness
# Procedure, shortened: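 Young wheat plants sprayed with compound in dimethylacetamide/emulsifier-water, then inoculated with S. tritici spores once dry. Kept 48 h at 20 °C/100% RH, 60 h at 15 °C/100% RH, then greenhouse ~15 °C/80% RH. Scored 21 days post-inoculation as % efficacy versus untreated control.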
# Phakopsora pachyrhizi = assay: Phakopsora test (soybean)/protective; assay type: in vivo; settings: 264 h, 500 ppm active substance, protective, evaluation 11 days after inoculation, read-out: degree of effectiveness
# Description: • Solvent: 28.5 parts by weight of acetone • Emulsifier: 1.5 parts by weight of polyoxyethylene alkylphenyl ether (polyoxy-ethylene (16) tristearylphenyl ether)
# To prepare a suitable active substance composition, 1 part by weight of active substance is mixed with the given amounts of solvent and emulsifier and the concentrate is diluted to the desired concentration using water.
# For the testing of protective effectiveness, young plants are sprayed with the active substance composition at the application rate given. One day after the spraying, the plants are sprayed with an aqueous suspension of spores of Phakopsora pachyrhizi. The plants remain in a greenhouse at 20° C. and 80% relative humidity.
# Evaluation is carried out 11 days after the inoculation. In this connection, 0% means a degree of effectiveness corresponding to that of the control, while a degree of effectiveness of 100% means that no infestation is observed.
# [1] = log P by HPLC on reversed-phase columns (C 18), EEC Directive 79/831 Annex V.A8; assay type: physicochemical; settings: reversed-phase C18 HPLC column
# [2] = pH 2.3, [a] HPLC, acid region pH 2.3, 0.1% aqueous phosphoric acid and acetonitrile, read-out: log p
# [3] = pH 2.3, pH 2.3, given in synthesis examples, read-out: log P (pH2.3)
"chromatographic logP [1, 2]","chromatographic logP [1, 3]",SMILES,pest or weed control at 100 ppm (Alternaria solani),pest or weed control at 100 ppm (Uromyces appendiculatus),pest or weed control at 500 ppm (Sphaerotheca fuliginea),pest or weed control at 500 ppm (Puccinia triticina),pest or weed control at 500 ppm (Septoria tritici),pest or weed control at 500 ppm (Phakopsora pachyrhizi)
,,"CCN(C)C=Nc1cc(C)c(Oc2nc(Cc3ccc(Cl)cc3)ns2)cc1C [Example 1, N′-(4-{[3-(4-chlorobenzyl)-1,2,4-thiadiazol-5-yl]oxy}-2,5-dimethylphenyl)-N-ethyl-N-methylimidoformamide]",≥ 70%,≥ 70%,≥ 70%,≥ 70%,≥ 70%,≥ 80%
2.09,,"Cc1cc(Oc2nc(Cc3ccc(Cl)cc3)ns2)c(C)cc1N=CN1CCCCC1 [Example 2, 4-{[3-(4-chlorobenzyl)-1,2,4-thiadiazol-5-yl]oxy}-2,5-dimethyl-N-(piperidin-1-ylmethylidene)aniline]",≥ 70%,≥ 70%,≥ 70%,≥ 70%,≥ 70%,≥ 80%
,,"CCN(C)C=Nc1cc(Cl)c(Oc2nc(Cc3ccc(Cl)cc3)ns2)cc1C [Example 3, N′-(5-chloro-4-{[3-(4-chlorobenzyl)-1,2,4-thiadiazol-5-yl]oxy}-2-methylphenyl)-N-ethyl-N-methylimidoformamide]",≥ 70%,≥ 70%,≥ 70%,≥ 70%,≥ 70%,≥ 80%
1.92,,"CCN(C)C=Nc1cc(C)c(Oc2nc(C(C)c3ccccc3)ns2)cc1C (stereo not shown) [Example 5, N′-(2,5-dimethyl-4-{[3-(1-phenylethyl)-1,2,4-thiadiazol-5-yl]oxy}phenyl)-N-ethyl-N-methylimidoformamide]",≥ 70%,≥ 70%,≥ 70%,≥ 70%,,≥ 80%
2.19,,"CCN(C)C=Nc1cc(C)c(Oc2nc(Cc3ccc(Cl)cc3Cl)ns2)cc1C [Example 11, N′-(4-{[3-(2,4-dichlorobenzyl)-1,2,4-thiadiazol-5-yl]oxy}-2,5-dimethylphenyl)-N-ethyl-N-methylimidoformamide]",≥ 70%,≥ 70%,≥ 70%,≥ 70%,≥ 70%,≥ 80%
2.34,,"CCN(C)C=Nc1cc(C)c(Oc2nc(C(C)c3ccc(Cl)cc3)ns2)cc1C (stereo not shown) [Example 17, N′-[4-({3-[1-(4-chlorophenyl)ethyl]-1,2,4-thiadiazol-5-yl}oxy)-2,5-dimethylphenyl]-N-ethyl-N-methylimidoformamide]",≥ 70%,≥ 70%,≥ 70%,≥ 70%,≥ 70%,≥ 80%
2.39,,"CCN(C)C=Nc1cc(Cl)c(Oc2nc(C(C)c3ccc(Cl)cc3)ns2)cc1C (stereo not shown) [Example 20, N′-[5-chloro-4-({3-[1-(4-chlorophenyl)ethyl]-1,2,4-thiadiazol-5-yl}oxy)-2-methylphenyl]-N-ethyl-N-methylimidoformamide]",,≥ 70%,≥ 70%,≥ 70%,,≥ 80%
1.89,,"CCN(C)C=Nc1cc(C)c(Oc2nc(Cc3ccc(C)cc3[N+](=O)[O-])ns2)cc1C [Example 24, N′-(2,5-dimethyl-4-{[3-(4-methyl-2-nitrobenzyl)-1,2,4-thiadiazol-5-yl]oxy}phenyl)-N-ethyl-N-methylimidoformamide]",≥ 70%,≥ 70%,≥ 70%,≥ 70%,≥ 70%,≥ 80%
2.55,,"CCN(C)C=Nc1cc(C)c(Oc2nc(C(C)(C)c3ccc(Cl)cc3)ns2)cc1C [Example 25, N′-[4-({3-[2-(4-chlorophenyl)propan-2-yl]-1,2,4-thiadiazol-5-yl}oxy)-2,5-dimethylphenyl]-N-ethyl-N-methylimidoformamide]",≥ 70%,≥ 70%,≥ 70%,≥ 70%,≥ 70%,≥ 80%
2.07,,"CCN(C)C=Nc1cc(C)c(Oc2nc(Cc3ccc(Br)cc3)ns2)cc1C [Example 31, N′-(4-{[3-(4-bromobenzyl)-1,2,4-thiadiazol-5-yl]oxy}-2,5-dimethylphenyl)-N-ethyl-N-methylimidoformamide]",≥ 70%,≥ 70%,≥ 70%,≥ 70%,≥ 70%,≥ 80%
,,"Cc1cc(Oc2nc(Cc3ccc(Br)cc3)ns2)c(C)cc1N=CN(C)C(C)C [Example 32, N′-(4-{[3-(4-bromobenzyl)-1,2,4-thiadiazol-5-yl]oxy}-2,5-dimethylphenyl)-N-methyl-N-(propan-2-yl)imidoformamide]",≥ 70%,≥ 70%,≥ 70%,≥ 70%,≥ 70%,≥ 80%
2.31,2.31,"CCN(C)C=Nc1cc(C)c(Oc2nc(Cc3cccc(Cl)c3)ns2)cc1C [Example 35, N′-(4-{[3-(3-chlorobenzyl)-1,2,4-thiadiazol-5-yl]oxy}-2,5-dimethylphenyl)-N-ethyl-N-methylimidoformamide]",≥ 70%,≥ 70%,≥ 70%,≥ 70%,≥ 70%,≥ 80%
2.21,2.28,"CCN(C)C=Nc1cc(C)c(Oc2nc(C3(c4ccc(Cl)cc4)CC3)ns2)cc1C [Example 37, N′-[4-({3-[1-(4-chlorophenyl)cyclopropyl]-1,2,4-thiadiazol-5-yl}oxy)-2,5-dimethylphenyl]-N-ethyl-N-methylimidoformamide]",≥ 70%,≥ 70%,≥ 70%,≥ 70%,≥ 70%,≥ 80%
2.55,,"CCN(C)C=Nc1cc(Cl)c(Oc2nc(C3(c4ccc(Cl)cc4)CC3)ns2)cc1C [Example 40, N′-[5-chloro-4-({3-[1-(4-chlorophenyl)cyclopropyl]-1,2,4-thiadiazol-5-yl}oxy)-2-methylphenyl]-N-ethyl-N-methylimidoformamide]",≥ 70%,≥ 70%,≥ 70%,≥ 70%,≥ 70%,≥ 80%
